According to PMC2920549, “Bromopyrrole Alkaloids as Lead Compounds against Protozoan Parasites” (Marine Drugs, 2010):
Converted amounts (≈) assume the structure as drawn. “And” between values parts separate entries of the source, which are not always exact repeats. Equal entries are not always repeated. Where two headings read alike, the source gives them in different places. Marks after values point to notes of the source that are not given here.

Columns and labels:
[1] = tested on: T. b. rhodesiense STIB 900 bloodstream forms; assay: Activity against Trypanosoma brucei rhodesiense (resazurin assay); assay type: cell-based; conditions: for IC50: Trypanosoma brucei, read-out: IC50 T. b. rhodesiense; for IC50 / IC50 T. b. rhodesiense: 72 h; for Selectivity index (CC50 L6 / IC50 parasite) for T. brucei rhodesiense: CC50 L6 cells divided by IC50 T. b. rhodesiense
Experimental: (§1) The toxicity on mammalian cells was assessed against L6 cells, a primary cell line derived from rat skeletal myoblasts.
STIB 900 strain of T. b. rhodesiense and the standard drug melarsoprol were used for the assay. […] Data were analyzed using the microplate reader software Softmax Pro (Molecular Devices Cooperation, Sunnyvale, CA, USA).

[2] = tested on: T. cruzi Tulahuen strain C2C4 intracellular amastigotes in L6 rat skeletal myoblasts; assay: Activity against Trypanosoma cruzi (beta-galactosidase/CPRG assay in L6 cells); assay type: cell-based; conditions: for IC50: Trypanosoma cruzi, TULAHUEN, L6, 96 h; for IC50 T. cruzi: 96 h
Experimental: Then the substrate CPRG/Nonidet (50 μl) was added to all wells. A color reaction developed within 2–6 h and could be read photometrically at 540 nm. Data were transferred into the graphic programme Softmax Pro (Molecular Devices), which calculated IC50 values. […] Benznidazole was the standard drug used.

[3] = tested on: L. donovani strain MHOM/ET/67/L82 axenic amastigotes; assay: Activity against Leishmania donovani (axenic amastigotes, resazurin); assay type: cell-based; conditions: for IC50: Leishmania donovani, read-out: IC50 L. donovani; for IC50 / IC50 L. donovani: 72 h; for Selectivity index (CC50 L6 / IC50 parasite) for L. donovani: CC50 L6 cells divided by IC50 L. donovani
Experimental: as §1
Amastigotes of L. donovani strain MHOM/ET/67/L82 were grown in axenic culture at 37 °C in SM medium at pH 5.4 supplemented with 10% heat-inactivated fetal bovine serum under an atmosphere of 5% CO2 in air. One hundred μL of culture medium with 10^5 amastigotes from axenic culture with or without a serial drug dilution were seeded in 96-well microtiter plates. […] Data were analyzed using the software Softmax Pro. Decrease of fluorescence (=inhibition) was expressed as percentage of the fluorescence of control cultures and plotted against the drug concentrations. From the sigmoidal inhibition curves the IC50 values were calculated. […] Miltefosine was used as a reference drug.

[4] = tested on: P. falciparum K1 strain erythrocytic stages; assay: Activity against Plasmodium falciparum ([3H]-hypoxanthine incorporation); assay type: cell-based; conditions: for IC50: Plasmodium falciparum; for Selectivity index (CC50 L6 / IC50 parasite) for P. falciparum: CC50 L6 cells divided by IC50 P. falciparum; for IC50 P. falciparum: K1 strain
Experimental: as §1
The radioactivity was counted using a Betaplate^TM liquid scintillation counter (Wallac, Zurich, Switzerland). […] IC50 values were calculated from graphically plotted dose-response curves.

[5] = Cytotoxicity against L6-cells (resazurin); assay type: cell-based, rat; conditions: rat
Experimental: as §1
(§2) Assays were performed in 96-well microtiter plates, each well containing 100 μL of RPMI 1640 medium supplemented with 1% L-glutamine (200 mM) and 10% fetal bovine serum, and 4 × 10^4 L-6 cells (a primary cell line derived from rat skeletal myoblasts). Serial drug dilutions of seven 3-fold dilution steps covering a range from 90 to 0.123 μg/mL were prepared. After 72 h of incubation the plates were inspected under an inverted microscope to assure growth of the controls and sterile conditions. 10 μl of a resazurin solution (12.5 mg resazurin dissolved in 100 mL distilled water) was then added to each well and the plates incubated for another 2 h. Then the plates were read with a Spectramax Gemini XS microplate fluorometer using an excitation wavelength of 536 nm and an emission wavelength of 588 nm. Data were analyzed using the microplate reader software Softmax Pro. Each CC50 value obtained is the mean of at least two separate experiments performed in duplicate. Podophyllotoxin was the standard drug used.

[6] = target: T1, PfFabZ (β-hydroxyacyl-ACP dehydratase) (Plasmodium falciparum, UniProt Q965D7); assay: biochemical
T1 construct: made in house
T1 sequence (Q965D7 19-230): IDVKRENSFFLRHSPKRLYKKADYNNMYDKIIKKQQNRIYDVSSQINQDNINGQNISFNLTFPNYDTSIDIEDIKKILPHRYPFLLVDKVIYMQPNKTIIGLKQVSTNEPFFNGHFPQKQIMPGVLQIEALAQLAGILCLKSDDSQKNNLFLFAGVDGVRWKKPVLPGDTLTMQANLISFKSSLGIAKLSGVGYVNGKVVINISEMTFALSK
Experimental: Expression and purification of the PfFab enzymes as well as the assays were performed as described [29]. […] Measurements were carried out in Nundron Surface sterile 96-well plates, using 20 mM Hepes and 150 mM NaCl at pH 7.4. Compounds were dissolved in DMSO (maximum final concentration 1%). A dilution series of 50 μg/mL to 0.0005 μg/mL of dissolved compounds was measured. For PfFabI, 400 μM NADH (cofactor, Sigma) was added to 2 μg enzyme and reaction started by addition of 300 μM crotonyl-CoA (substrate, Sigma). The change of absorbance of the mixture was recorded spectrophotometrically at 340 nm for 40 minutes. Triclosan was used as a positive control and was analyzed the same way. For PfFabG 400 μM NADPH (cofactor, Fluka) was added to 0.5 μg enzyme and reaction started by addition of 300 μM acetoacetyl-CoA (substrate, Sigma). The change of absorbance of the mixture was recorded spectrophotometrically at 340 nm for 20 minutes. (-)-Epigallocatechin gallate (Sigma) was used as a positive control and was analyzed the same way. For PfFabZ, 600 μM crotonoyl-CoA (substrate, Sigma) was added to 0.5 μg enzyme. The change of absorbance of the mixture was recorded spectrophotometrically at 260 nm for 20 minutes. (−)-Epigallocatechin gallate was used as a positive control. IC50 values were estimated from graphically plotted dose-response curves. […]

L6 cells [7] = assay: Cytotoxicity against L6-cells (resazurin); assay type: cell-based, rat; conditions: 72 h
Experimental: as §1, §2

[8] = tested on: T. b. rhodesiense STIB 900 bloodstream forms; parameters: method as in PMID 17765547; conditions: earlier study; cited from earlier work
[9] = tested on: T. cruzi Tulahuen strain C2C4 intracellular amastigotes in L6 rat skeletal myoblasts; parameters: method as in PMID 17765547; conditions: earlier study; cited from earlier work
[10] = tested on: L. donovani strain MHOM/ET/67/L82 axenic amastigotes; parameters: method as in PMID 17765547; conditions: earlier study; cited from earlier work
[11] = tested on: P. falciparum K1 strain erythrocytic stages; parameters: method as in PMID 17765547; conditions: earlier study; cited from earlier work
L6 cells [12] = tested on: L6 cells; parameters: method as in PMID 17765547; conditions: earlier study; cited from earlier work
[13] = tested on: PfFabI (enoyl-ACP reductase); parameters: method as in PMID 17765547; conditions: previous project; cited from earlier work
[14] = K1, K1 strain, erythrocytic stage, read-out: IC50 P. falciparum
[15] = 72 h, read-out: CC50 Cytotoxicity L6 cells
[16] = K1, read-out: IC50 P. falciparum

Molecule | IC50 ([1]; STIB 900 bloodstream forms) [µg/mL] | IC50 [2] [µg/mL] | IC50 ([3]; axenic amastigotes) [µg/mL] | IC50 [4, 14] [µg/mL] | CC50 at 72 h [5] [µg/mL] | further results
O=C1NC[C@@H](O)n2c1cc(Br)c2Br [Compound 9, longamide A] | > 90 | > 90 | > 90 | > 20 | > 90 | –
NC1=NC(=O)/C(=C/C(O)CNC(=O)c2cc(Br)c[nH]2)N1 (stereo not drawn) [Compound 4, dispacamide D] | 68.2 (≈ 199 µM) | > 90 | 53.8 (≈ 157 µM) | > 20 | > 90 | –
Nc1nc([C@H]2[C@H](CNC(=O)c3cc(Br)c[nH]3)[C@@H](CNC(=O)c3cc(Br)c[nH]3)[C@@H]2c2c[nH]c(N)n2)c[nH]1 [Compound 10, sceptrin] | 9.71 (≈ 15.7 µM) | > 33 | 51.6 (≈ 83.2 µM) | 11.1 (≈ 17.9 µM) | > 90 | IC50 T. cruzi [2]: 60.08 µg/mL (≈ 96.9 µM)
C[C@]1(COC(=O)c2cc(Br)c[nH]2)C[C@@H](C(=O)O)N=CN1 [Compound 13, manzacidin A] | 73.8 (≈ 214 µM) | > 90 | 75.8 (≈ 220 µM) | > 20 | > 90 | –
CCCCCCCCCCCCCCCCOP(=O)([O-])OCC[N+](C)(C)C [Miltefosine, reference compound] | – | – | 0.21 (≈ 0.515 µM) | – | – | IC50 L. donovani ([3]; axenic amastigotes): 0.206 ^c μg/mL
COc1cc([C@@H]2c3cc4c(cc3[C@H](O)[C@H]3COC(=O)[C@H]23)OCO4)cc(OC)c1OC [Podophyllotoxin, reference compound] | – | – | – | – | – | CC50 at 72 h [5, 15]: 0.005 µg/mL (≈ 0.0121 µM)
O=C(O)CC1CNC(=O)c2cc(Br)c(Br)n21 (stereo not drawn) [Compound 8, longamide B] | 1.53 (≈ 4.35 µM) | > 33 | 3.85 (≈ 10.9 µM) | 7.46 (≈ 21.2 µM) | 9.94 (≈ 28.2 µM) | Selectivity index (CC50 L6 / IC50 parasite) for T. brucei rhodesiense [1]: 6.5; IC50 T. cruzi [2]: 33.03 µg/mL (≈ 93.8 µM); Selectivity index (CC50 L6 / IC50 parasite) for L. donovani [3]: 2.6
O=C(O[C@@H]1Cc2c(O)cc(O)cc2O[C@@H]1c1cc(O)c(O)c(O)c1)c1cc(O)c(O)c(O)c1 [(−)-epigallocatechin gallate, reference compound] | – | – | – | – | – | IC50 [6]: 698 nM
CCN(CC)CCCC(C)Nc1ccnc2cc(Cl)ccc12 (stereo not drawn) [Chloroquine, reference compound] | – | – | – | – | – | IC50 [4, 16]: 0.065 µg/mL (≈ 0.203 µM)
Nc1ncc(C2=CCNC(=O)c3[nH]c(Br)c(Br)c32)[nH]1 [Compound 5, stevensine] | 25.3 (≈ 65.5 µM) | > 90 | 75.9 (≈ 196 µM) | 4.88 (≈ 12.6 µM) | > 90 | –
Nc1nc(N)nc(Nc2ccc([As]3SCC(CO)S3)cc2)n1 (stereo not drawn) [Melarsoprol, reference compound] | – | – | – | – | – | IC50 [1]: 0.004 µg/mL
NCC1C2CN3C(=O)c4cc(Br)c(Br)n4C4N=C(N)NC43C2C2(N=C(N)NC2O)C1Cl (stereo not drawn) [Compound 11, dibromopalau’amine] | 0.46 (≈ 0.796 µM) | – | – | – | – | Selectivity index (CC50 L6 / IC50 parasite) for T. brucei rhodesiense [1]: about 10; Selectivity index (CC50 L6 / IC50 parasite) for L. donovani [3]: 3–4; IC50 [3]: 1.09 µg/mL (≈ 1.89 µM); Selectivity index (CC50 L6 / IC50 parasite) for P. falciparum [4]: 3–4; IC50 [4, 16]: 1.48 µg/mL (≈ 2.56 µM); CC50 at 72 h [5, 15]: 4.46 µg/mL (≈ 7.72 µM)
agelongine [Compound 14] | – | – | – | – | – | IC50 T. b. rhodesiense ([1]; STIB 900 bloodstream forms): 49.96 µg/mL; IC50 T. cruzi [2]: >90 µg/mL; IC50 L. donovani ([3]; axenic amastigotes): 43.22 µg/mL; IC50 P. falciparum ([4]; erythrocytic stage): 11.18 µg/mL; CC50 Cytotoxicity L6 cells (L6 cells [7]): >90 µg/mL
O=C1CCNC(=O)c2[nH]c(Br)cc21 [Compound 7, bromoaldisin] | 61.5 (≈ 253 µM) | > 90 | > 90 | > 20 | > 90 | –
Nc1ncc(/C=C/CNC(=O)c2cc(Br)c(Br)[nH]2)[nH]1 [Compound 1b, oroidin] | – | – | – | – | – | IC50 T. b. rhodesiense [8]: 12.20 ^1 μg/mL; IC50 T. cruzi [9]: >30 ^1 μg/mL; IC50 L. donovani [10]: 15.40 ^1 μg/mL; IC50 P. falciparum [11]: 7.90 ^1 μg/mL; CC50 Cytotoxicity L6 cells (L6 cells [12]): 76.40 ^1 μg/mL; PfFabI inhibition (in words) [13]: potent PfFAbI inhibitors
N=C(N)NCCCC[C@H](NC(=O)c1cc(Br)c[nH]1)C(=O)O [Compound 12, bromopyrrolohomoarginin] | 67.1 (≈ 186 µM) | > 90 | 34.5 (≈ 95.7 µM) | > 20 | 62.3 (≈ 173 µM) | IC50 ([6]; read-out: IC50 PfFabZ (converted)): 777 nM
Nc1ncc(/C=C/CNC(=O)c2cc(Br)c(Br)[nH]2)[nH]1 [Compound 1a, oroidin] | – | – | – | – | – | IC50 T. b. rhodesiense [8]: 17.30 ^1 μg/mL; IC50 T. cruzi [9]: >30 ^1 μg/mL; IC50 L. donovani [10]: >30 ^1 μg/mL; IC50 P. falciparum [11]: 3.90 ^1 μg/mL; CC50 Cytotoxicity L6 cells (L6 cells [12]): 88.60 ^1 μg/mL; PfFabI inhibition (in words) [13]: potent PfFAbI inhibitors
O=C(Cn1ccnc1[N+](=O)[O-])NCc1ccccc1 [Benznidazole, reference compound] | – | 0.312 (≈ 1.2 µM) | – | – | – | –
NC1=NC(=O)/C(=C/CCNC(=O)c2cc(Br)c[nH]2)N1 [Compound 3, dispacamide B] | 40.1 (≈ 123 µM) | > 90 | > 90 | 1.09 (≈ 3.34 µM) | > 90 | IC50 L. donovani ([3]; axenic amastigotes): completely inactive; Selectivity index (CC50 L6 / IC50 parasite) for P. falciparum [4]: > 67.2; IC50 P. falciparum ([4]; erythrocytic stage): 1.34 µg/mL (≈ 4.11 µM); CC50 Cytotoxicity L6 cells (L6 cells [7]): devoid of any cytotoxicity
Nc1ncc(/C=C/CNC(=O)c2cc(Br)c[nH]2)[nH]1 [Compound 2, hymenidin] | 77.6 (≈ 250 µM) | – | 29.9 (≈ 96.3 µM) | 12.5 (≈ 40.4 µM) | 75.7 (≈ 244 µM) | –
spongiacidin B [Compound 6] | – | – | – | – | – | IC50 T. b. rhodesiense ([1]; STIB 900 bloodstream forms): 13.58 µg/mL and 13.48 µg/mL; IC50 L. donovani ([3]; axenic amastigotes): 41.59 µg/mL; IC50 P. falciparum ([4]; erythrocytic stage): 1.34 µg/mL and 1.09 µg/mL; CC50 Cytotoxicity L6 cells (L6 cells [7]): 35.6 µg/mL and 35.61 µg/mL
